In patent US20240180888A1, “C5AR1 INHIBITORS FOR TREATING […] REACTIONS TO TAXANES” (Dompe' Farmaceutici SPA, priority 2021, published 2024):
“Also recorded” adds a separate entry of the source.

Tests used:
[1] = tested on: paclitaxel-induced HSRs in mice; test: Prevention of paclitaxel-induced HSRs in vivo by C5aR1 inhibition (Example 8); settings: 30 mg/kg, os; for increment of serum concentration of complement 5b-9 (SC5b-9) / increment of serum concentration of histamine: pre-treatment, paclitaxel-treated mice, ELISA; for paclitaxel-induced increase of plasma extravasation / paclitaxel-induced increase of vascular leakage: DF3966A 3 h, Avacopan 1 h before paclitaxel 20 mg/kg iv in Cremophor EL
Description: ) was intravenousely administrated at 20 mg/kg (0.1 mL/Kg) dissolved in Cremophor EL (polyoxyl 35 castor oil, Sigma-Aldrich, cod. 238470). […] Cremophor alone (Cremophor) was used as a control. […] Intracardiac injection was done to obtain blood in tubes and leaving it undisturbed at room temperature. Serum was separated from blood cells 30 minutes later by centrifugation (2000×g for 10 min, at 4° C.). Aliquots were prepared and stored at -20° C. ELISA kit was used to evaluate the following marker: histamine and SC5b-9 (Mybiosource, San Diego, USA Cat.No: MBS9361379, MBS725193).

[2] = tested on: RAW 264.7 mouse macrophages; test: Proteome profiler cytokine release assay in RAW 264.7 macrophages; assay type: cell-based; settings: stimulus C5a 10 nM or Paclitaxel 10 nM, 24 h; DF3966A 10 μM, anti C5aR Ab 50 nM, Avacopan 10 μM
Description: RAW 264.7 (ATTC TIB-71) mouse macrophages were cultured following manufacturer's instructions using DMEM medium (Euroclone, MI, Italy) supplemented with 10% FBS (non-heat inactivated) (ATCC, USA) at 37° C., in a humidified 95% air-5% CO2 atmosphere and then were seeded at 1*10^4 cells/cm^2.
(§1) After 24 hours, cells were treated with C5a (diluted in medium) (10 nM, R&D, USA), Paclitaxel (diluted in medium) (10 nM, Sigma, USA) in the absence and in the presence of the C5a inhibitor DF3966A (10 μM), and anti C5aR Ab (BioLegend, CA, USA; 50 nM) or Avacopan (10 μM) for 24 hours, then the media was replaced with culture media (5 ml) for 24 h and then collected.
(§2) Conditioned media were centrifugated to remove particulates and assayed immediately. […] The reagents were prepared following manufacturer's protocols (R&D, USA). Briefly, the membranes were incubated with Array Buffer 6 for 1 hour on a rocking platform shaker. The samples were prepared by adding up to 1 ml of Array Buffer 4 in two separated tubes and then 15 microl of reconstituted mouse cytokine detection antibody cocktail (>40 mouse cytokines) to each prepared sample and incubated 1 hour. Then, the Array Buffer 6 was aspirated and replaced with the sample/antibody mixtures and incubated at 4° C. overnight. The following day, membranes were washed 3 times and Streptavidin-HRP (1:2000) was incubated for 30 minutes at room temperature on a rocking platform shaker. The membranes were washed again, and 1 ml of prepared Chemi Reagent mix was placed onto each membrane. Multiple exposure times were acquired using UVITEC digital analyzer (Alliance, Cambridge, UK).
(§3) The positive signals seen in the developed membranes can be identified by placing the transparency overlay template on the array image and aligning it with pairs of reference spots in the three corners of each array (see FIG. 10). […] Pixel densities (average signals of pair of duplicates which represent each cytokine) were analyzed by ImageJ and the average background was subtracted from each spot.
(§4) In details, the profiling of cytokines released (>40 cytokines) from RAW 264.7 and human macrophages challenged with paclitaxel (Sigma-Aldrich; 10 nM) or C5a (R&D Systems, Inc. MN, USA; 10 nM) for 24 h using a proteome profiler assay. […] The experimental assay is explained in example 4.
(§5) For the human macrophages, human XL Cytokine Array kit #Ary022B was used, while for murine macrophages mouse cytokine Array Panel A #Ary006 was used (R&D systems, USA).

[3] = tested on: human (THP-1) macrophages; test: Proteome profiler cytokine release assay in human macrophages; assay type: cell-based; settings: human macrophages; stimulus C5a 10 nM or paclitaxel 10 nM, 24 h
Description: as §1, §2, §3, §4, §5

C[C@H](c1ccc(Nc2nc(C(F)(F)F)cs2)cc1)c1nn[nH]n1 [DF3966A, 5-[(1R)-1-(4-{[4-(trifluoromethyl)-1,3-thiazol-2-yl]amino}phenyl)ethyl]tetrazol-2-ide]
increment of serum concentration of complement 5b-9 (SC5b-9) [1]: significatively reduced | increment of serum concentration of histamine [1]: significatively reduced | paclitaxel-induced increase of plasma extravasation [1]: abolishing | paclitaxel-induced increase of vascular leakage [1]: abolishing | effect on C5a- and paclitaxel-induced cytokine release [2]: inhibited; also recorded: counteracted | effect on C5a- and paclitaxel-induced cytokine release [3]: effectively counteracted

Cc1ccc(NC(=O)[C@H]2CCCN(C(=O)c3c(C)cccc3F)[C@H]2c2ccc(NC3CCCC3)cc2)cc1C(F)(F)F [Avacopan, (2R,3S)-2-[4-(Cyclopentylamino)phenyl]-1-(2-fluoro-6-methylbenzoyl)-N-[4-methyl-3-(trifluoromethyl)phenyl]piperidine-3-carboxamide]
increment of serum concentration of complement 5b-9 (SC5b-9) [1]: significatively reduced | increment of serum concentration of histamine [1]: significatively reduced | paclitaxel-induced increase of plasma extravasation [1]: abolishing | paclitaxel-induced increase of vascular leakage [1]: abolishing | effect on C5a- and paclitaxel-induced cytokine release [2]: inhibited; also recorded: counteracted | effect on C5a- and paclitaxel-induced cytokine release [3]: effectively counteracted
